The target of one assay is mTOR (Homo sapiens, UniProt P42345). The assay is described as follows: mTOR assay (phosphorylation of 4eBP1, [γ33P]-ATP filter plate). In kind it is biochemical. Conditions: 10 μM ATP, 1 hour at room temperature. Here is the method:
Truncated mTOR kinase and His-tagged 4eBP1 were produced in-house. [γ^33P]-ATP was purchased from Amersham (GE Healthcare). All chemicals, unless otherwise stated, were from Sigma-Aldrich.
Phosphorylation assays were initially performed in a final volume of 20 μL in 384-well polypropylene plate (Greiner). Compounds were typically tested over the range from 100 μM to 0.006 μM, in 8 step dilutions, in duplicate. 10 μL/well of 2× Enzyme-Substrate solution (1.5 μg/mL mTOR, 40 μg/mL 4eBP1 in 1× assay buffer: 10 mM Hepes pH 7.5, 50 mM NaCl and 10 mM MnCl2) were first added to the sample plate containing 1 μL/well of test compound in neat DMSO. The reaction was initiated by adding 10 μL/well of 20 μM ATP solution (final assay concentration 10 μM ATP and 0.4 μCi/well of [γ^33P]-ATP). After 1 hour incubation at room temperature, the reaction was terminated with 40 μL/well of 20 mM EDTA/1 mM ATP solution.
50 μL/well of the stopped reaction mix was then transferred to 384-well MultiScreenHTS-PH filter plate (Millipore) pre-added with 50 μL/well of 1% phosphoric acid. The plate was washed 4 times with 120 μL/well of 0.5% phosphoric acid via vacuum filtration. Finally, 10 μL/well of Optiphase™ SuperMix liquid scintillation cocktail (Perkin Elmer) was added. After minimum 1 hour of incubation, counting was performed in a Wallac MicroBeta TriLux scintillation counter using coincidence counting mode with crosstalk correction.

For a further assay, the target named is T1, PI3K p110α/p85 (Homo sapiens, UniProt P42336).
T1 construct: made in house
T1 sequence (P42336 whole entry): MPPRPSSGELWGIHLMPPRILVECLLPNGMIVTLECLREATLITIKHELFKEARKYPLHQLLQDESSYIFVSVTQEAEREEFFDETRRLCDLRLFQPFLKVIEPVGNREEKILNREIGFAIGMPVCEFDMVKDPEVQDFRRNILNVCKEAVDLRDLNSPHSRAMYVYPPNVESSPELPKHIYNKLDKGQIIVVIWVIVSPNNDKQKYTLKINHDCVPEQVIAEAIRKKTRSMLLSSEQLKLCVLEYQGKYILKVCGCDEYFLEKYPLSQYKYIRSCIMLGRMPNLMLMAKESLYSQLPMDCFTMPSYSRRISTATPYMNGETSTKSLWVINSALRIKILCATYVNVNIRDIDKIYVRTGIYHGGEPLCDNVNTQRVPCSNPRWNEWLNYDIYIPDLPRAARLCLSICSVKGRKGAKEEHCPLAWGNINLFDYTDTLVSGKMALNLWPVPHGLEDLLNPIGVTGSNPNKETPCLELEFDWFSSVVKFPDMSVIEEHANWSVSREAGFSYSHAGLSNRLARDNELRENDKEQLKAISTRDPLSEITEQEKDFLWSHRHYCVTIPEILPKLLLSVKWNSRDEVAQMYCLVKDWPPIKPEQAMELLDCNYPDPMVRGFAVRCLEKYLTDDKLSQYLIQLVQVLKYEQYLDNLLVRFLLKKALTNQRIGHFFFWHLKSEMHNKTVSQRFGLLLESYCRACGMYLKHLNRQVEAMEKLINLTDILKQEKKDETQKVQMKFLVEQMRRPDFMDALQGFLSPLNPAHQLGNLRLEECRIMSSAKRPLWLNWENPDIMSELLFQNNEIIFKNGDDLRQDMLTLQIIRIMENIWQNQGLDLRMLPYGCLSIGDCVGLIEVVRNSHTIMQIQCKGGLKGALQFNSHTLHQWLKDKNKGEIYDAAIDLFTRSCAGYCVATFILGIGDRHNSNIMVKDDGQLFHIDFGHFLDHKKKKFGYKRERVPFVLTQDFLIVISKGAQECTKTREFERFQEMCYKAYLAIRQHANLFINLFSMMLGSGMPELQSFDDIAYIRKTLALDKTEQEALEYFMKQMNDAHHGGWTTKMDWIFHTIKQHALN
T1 sequence (P27986 whole entry partner): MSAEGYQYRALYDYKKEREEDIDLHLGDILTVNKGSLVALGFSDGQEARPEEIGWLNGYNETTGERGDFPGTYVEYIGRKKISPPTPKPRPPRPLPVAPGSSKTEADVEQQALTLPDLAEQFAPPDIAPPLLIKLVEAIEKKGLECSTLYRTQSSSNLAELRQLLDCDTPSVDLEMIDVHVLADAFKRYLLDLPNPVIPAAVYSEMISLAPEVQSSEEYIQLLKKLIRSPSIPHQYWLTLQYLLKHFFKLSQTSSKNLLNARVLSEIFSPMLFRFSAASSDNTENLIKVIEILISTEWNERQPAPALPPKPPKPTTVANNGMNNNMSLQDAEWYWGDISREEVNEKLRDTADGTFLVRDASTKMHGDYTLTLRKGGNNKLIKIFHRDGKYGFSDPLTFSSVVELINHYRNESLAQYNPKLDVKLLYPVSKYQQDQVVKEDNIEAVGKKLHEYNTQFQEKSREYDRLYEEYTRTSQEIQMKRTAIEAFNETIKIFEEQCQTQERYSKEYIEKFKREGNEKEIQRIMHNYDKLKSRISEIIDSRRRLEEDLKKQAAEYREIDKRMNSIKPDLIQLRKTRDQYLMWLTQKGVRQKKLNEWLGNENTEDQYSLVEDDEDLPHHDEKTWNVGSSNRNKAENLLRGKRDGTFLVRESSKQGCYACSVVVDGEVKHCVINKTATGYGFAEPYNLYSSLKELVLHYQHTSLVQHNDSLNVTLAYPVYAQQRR
The assay is described as follows: PI3K assay ([γ33P]ATP, PtdIns/PtdSer coated plates). The format is biochemical. The conditions noted are these: 2 μM ATP, 1 hour at RT; read-out: IC50 (PI3Kα). How it is done: Recombinant PI3K p110α/p85 was prepared in-house. Phosphatidylinositol (PtdIns), phosphotidylserine (PtdSer) and all other unspecified chemicals were purchased from Sigma-Aldrich. [γ^33P]ATP and Optiphase scintillant were obtained from Perkin Elmer.
Assays were performed in a final assay volume of 25 μL in 384-well Maxisorp plates (Nunc). Compounds were tested at 8 concentrations in 3-fold serial dilution, generally starting from 10 μM. Maxisorp plates were coated with 20 μL/well of a 1:1 mixture of PtdIns and PtdSer [0.1 mg/mL each dissolved in chloroform:ethanol (3:7)] and left overnight in a fume hood at room temperature (RT) to dry.
The enzyme reaction was created by pipetting 5 μL/well of compound (in 2.5% DMSO), 10 μL/well of enzyme (0.5 μg/mL p110α+1 μg/mL p85), and 10 μL/well of 5 μM ATP with 5 μCi/mL [γ^33P]ATP in assay buffer (final concentrations: 0.2 μg/mL p110α, 2 μM ATP, […] [γ^33P]ATP in 1× assay buffer: 100 mM Tris-HCl pH 7.0, 200 mM NaCl, 8 mM MgCl2). The reaction was incubated for 1 hour at RT and terminated with 30 μL/well of 50 mM EDTA solution. The plate was then washed twice with TBS, dried, and added with 30 μL/well of scintillant before it was counted in a MicroBeta Trilux.

The test system of a further assay is DU145. The assay is described as follows: Cell-based proliferation assay, DU145. The conditions noted are these: Homo sapiens, DU-145; DU145 cells, 96 h treatment. Here is the method: Human cancer cell lines PC3 and DU145 (human prostate cancer cell lines), were obtained from ATCC. They were cultured in the media according to the ATCC work instructions. PC3 and DU145 cells were seeded at 1,000 cells per well in 96-well plates, respectively. The plates were incubated at 37° C., 5% CO2, for 24 h. Cells were treated with compounds at various concentrations for 96 h. Cell proliferation was then quantified using Celltiter96 Aqueous One Solution Cell Proliferation Assay from Promega (Madison Wis.). Dose response curves were plotted to determine IC50 values for the compounds using XL-fit (ID Business Solution, Emeryville, Calif.).

SMILES strings stand for the structures.

By IC50 is commonly meant the midpoint of a concentration-inhibition curve.

Sequence of mTOR (P42345 1382-2549 limits assumed): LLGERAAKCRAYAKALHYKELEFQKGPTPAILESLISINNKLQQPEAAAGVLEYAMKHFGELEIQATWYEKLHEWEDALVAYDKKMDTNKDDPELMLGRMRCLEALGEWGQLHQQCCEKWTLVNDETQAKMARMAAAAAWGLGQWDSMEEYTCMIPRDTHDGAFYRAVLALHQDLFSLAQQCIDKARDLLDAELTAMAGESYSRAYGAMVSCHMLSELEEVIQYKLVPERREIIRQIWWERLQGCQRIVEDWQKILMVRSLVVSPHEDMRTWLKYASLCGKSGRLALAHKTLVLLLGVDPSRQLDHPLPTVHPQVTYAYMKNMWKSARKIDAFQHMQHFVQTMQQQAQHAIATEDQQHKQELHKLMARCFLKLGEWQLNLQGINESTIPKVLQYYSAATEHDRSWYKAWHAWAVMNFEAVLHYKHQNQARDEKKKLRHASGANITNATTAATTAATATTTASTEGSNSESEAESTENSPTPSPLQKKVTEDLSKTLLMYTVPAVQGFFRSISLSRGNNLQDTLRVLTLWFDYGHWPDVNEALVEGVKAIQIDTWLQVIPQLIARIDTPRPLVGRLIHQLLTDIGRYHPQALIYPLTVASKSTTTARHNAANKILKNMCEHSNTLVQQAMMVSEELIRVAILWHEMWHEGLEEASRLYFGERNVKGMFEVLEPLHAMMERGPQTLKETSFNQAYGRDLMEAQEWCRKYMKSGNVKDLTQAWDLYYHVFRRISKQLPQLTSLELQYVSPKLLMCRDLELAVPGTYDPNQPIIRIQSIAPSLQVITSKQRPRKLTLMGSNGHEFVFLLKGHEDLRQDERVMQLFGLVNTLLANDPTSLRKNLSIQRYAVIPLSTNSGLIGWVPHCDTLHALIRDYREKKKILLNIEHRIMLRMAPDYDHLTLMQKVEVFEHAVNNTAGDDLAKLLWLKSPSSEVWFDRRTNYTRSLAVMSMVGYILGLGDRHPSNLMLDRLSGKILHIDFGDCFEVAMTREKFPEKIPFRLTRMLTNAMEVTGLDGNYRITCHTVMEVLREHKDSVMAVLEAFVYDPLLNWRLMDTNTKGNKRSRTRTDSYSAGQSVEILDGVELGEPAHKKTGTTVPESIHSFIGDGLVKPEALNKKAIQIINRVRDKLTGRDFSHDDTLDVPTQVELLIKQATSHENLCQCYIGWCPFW

Consider `COc1ccc(Cn2cnc3c(-c4cccc(O)c4)nc(N4CCOCC4)nc32)cc1` [Compound 8], for which the IC50 on mTOR was < 1000 nM; at PI3K p110α/p85 it was < 1000 nM; in the assay on DU145, 1000 to 5000 nM.

Consider `CC(c1ccccc1)n1cnc2c(-c3cccc(O)c3)nc(N3CCOCC3)nc21` (centres unmarked) [Compound 36], for which the half-maximal inhibitory concentration (IC50) on mTOR was < 1000 nM; at PI3K p110α/p85, < 1000 nM; in the assay with DU145 it was 1000 to 5000 nM.

Regarding `Oc1cccc(-c2nc(N3CCOCC3)nc3c2ncn3Cc2ccccc2)c1` [Compound 2], the half-inhibitory concentration (IC50) is < 1000 nM on mTOR, < 1000 nM on PI3K p110α/p85 and 1000 to 5000 nM with DU145.

As for `N#CCn1cnc2c(-c3cccc(O)c3)nc(N3CCOCC3)nc21` [Compound 35], the results for the half-inhibitory concentration (IC50) against mTOR, on PI3K p110α/p85 and in the assay on DU145 were < 1000 nM, < 1000 nM and 1000 to 5000 nM, respectively.

Regarding `C=CCCn1cnc2c(-c3cccc(O)c3)nc(N3CCOCC3)nc21` [Compound 22], the IC50 is < 1000 nM on mTOR, < 1000 nM on PI3K p110α/p85 and ≤ 1000 nM in the assay on DU145.

For `Oc1cccc(-c2nc(N3CCOCC3)nc3c2ncn3CC2CC2)c1` [Compound 50], the figures for the IC50 against mTOR, at PI3K p110α/p85 and with DU145 were < 1000 nM, < 1000 nM and ≤ 1000 nM, respectively.

Consider `c1cc(-c2nc(N3CCOCC3)nc3c2ncn3C2CCOC2)c2cc[nH]c2c1` (centres unmarked) [Compound 110], for which the IC50 against mTOR and on PI3K p110α/p85 was < 1000 nM in each case.

Consider `Oc1cccc(-c2nc(N3CCOCC3)nc3c2ncn3C2CCOC2)c1` (centres unmarked) [Compound 97], for which the concentration for half-maximal inhibition (IC50) against mTOR and at PI3K p110α/p85 was < 1000 nM in each case.

Regarding `O=C(CCN1CCCCC1)Nc1ccc(Cn2cnc3c(-c4cccc(O)c4)nc(N4CCOCC4)nc32)cc1` [Compound 26, N-{4-[6-(3-Hydroxy-phenyl)-2-morpholin-4-yl-purin-9-ylmethyl]-phenyl}-3-piperidin-1-yl-propionamide], the IC50 against mTOR is 1000 to 5000 nM; at PI3K p110α/p85, < 1000 nM.

On to `CS(=O)(=O)Nc1cccc(-c2nc(N3CCOCC3)nc3c2ncn3Cc2ccccc2)c1` [Compound 43], for which the IC50 at mTOR and at PI3K p110α/p85 was > 5000 nM in each case.

In the case of `CCNc1nc2c(-c3cccc(O)c3)nc(N3CCOCC3)nc2n1C(C)CC` (centres unmarked) [Compound 122], the half-maximal inhibitory concentration (IC50) against mTOR and on PI3K p110α/p85 was < 1000 nM each time.

Consider `Oc1cc(F)cc(-c2nc(N3CCOCC3)nc3c2ncn3Cc2ccccc2)c1` [Compound 3], for which the concentration for half-maximal inhibition (IC50) at mTOR and at PI3K p110α/p85 was < 1000 nM in each case.

Take `CC1CN(c2nc(-c3cccc4[nH]ccc34)c3ncn(CC#N)c3n2)CC(C)O1` (centres unmarked) [Compound 81]: the 50% inhibitory concentration (IC50) at mTOR and on PI3K p110α/p85 was > 5000 nM throughout.

As to `CCN(CC)CCn1cnc2c(-c3cccc(O)c3)nc(N3CCOCC3)nc21` [Compound 98], the concentration for half-maximal inhibition (IC50) at mTOR was > 5000 nM; on PI3K p110α/p85, < 1000 nM.

With `O=c1[nH]c2ccc(-c3nc(N4CCOCC4)nc4c3ncn4CC3CC3)cc2[nH]1` [Compound 65], the IC50 on mTOR and at PI3K p110α/p85 was > 5000 nM in each case.

With `c1ccc(Cn2cnc3c(-c4ccc5nc[nH]c5c4)nc(N4CCOCC4)nc32)cc1` [Compound 28], the 50% inhibitory concentration (IC50) against mTOR and at PI3K p110α/p85 was 1000 to 5000 nM throughout.

`CCCCNc1nc2c(-c3cccc(O)c3)nc(N3CCOCC3)nc2n1C(C)CC` (centres unmarked) [Compound 120]: the IC50 against mTOR and at PI3K p110α/p85 was < 1000 nM in each case.

As to `CCC(C)n1c(NCCOC)nc2c(-c3cccc(O)c3)nc(N3CCOCC3)nc21` (centres unmarked) [Compound 128], the half-inhibitory concentration (IC50) against mTOR and at PI3K p110α/p85 was < 1000 nM throughout.

For the compound `CCC(C)n1cnc2c(-c3ccc(N)nc3)nc(N3CCOCC3)nc21` (centres unmarked) [Compound 132, 5-(9-sec-Butyl-2-morpholin-4-yl-9H-purin-6-yl)-pyridin-2-ylamine], the half-maximal inhibitory concentration (IC50) on mTOR and at PI3K p110α/p85 was < 1000 nM each time.

On to `Oc1cccc(-c2nc(N3CCOCC3)nc3c2ncn3Cc2c(F)cccc2F)c1` [Compound 7], for which the IC50 at mTOR and on PI3K p110α/p85 was < 1000 nM each time.

With `c1ccc(Cn2cnc3c(-c4ccc5nn[nH]c5c4)nc(N4CCOCC4)nc32)cc1` [Compound 39], the IC50 against mTOR and on PI3K p110α/p85 was 1000 to 5000 nM each time.

`O=c1[nH]c2ccc(-c3nc(N4CCOCC4)nc4c3ncn4Cc3ccccc3)cc2[nH]1` [Compound 40]: the 50% inhibitory concentration (IC50) at mTOR and on PI3K p110α/p85 was > 5000 nM each time.

For `CC(C1CC1)n1cnc2c(-c3cccc(O)c3)nc(N3CCOCC3)nc21` (centres unmarked) [Compound 92], the 50% inhibitory concentration (IC50) against mTOR and at PI3K p110α/p85 was < 1000 nM each time.

For the compound `CCC(C)n1c(C)nc2c(-c3cccc(O)c3)nc(N3CCOCC3)nc21` (centres unmarked) [Compound 113], the half-maximal inhibitory concentration (IC50) against mTOR and on PI3K p110α/p85 was < 1000 nM each time.

`CCC(C)n1c(NCCN(C)C)nc2c(-c3cccc(O)c3)nc(N3CCOCC3)nc21` (centres unmarked) [Compound 127]: the IC50 on mTOR and at PI3K p110α/p85 was < 1000 nM throughout.

Turning to `CCC(C)n1c(N2CCCC2)nc2c(-c3cccc(O)c3)nc(N3CCOCC3)nc21` (centres unmarked) [Compound 125], the IC50 against mTOR and at PI3K p110α/p85 was < 1000 nM in each case.

Take `Oc1cccc(-c2nc(N3CCOCC3)nc3c2nc(-c2cccs2)n3C2CCCCO2)c1` (centres unmarked) [Compound 116]: the IC50 against mTOR and on PI3K p110α/p85 was > 5000 nM each time.

As for `O=C(CCN1CCCCC1)N1CCC(n2cnc3c(-c4cccc5[nH]ccc45)nc(N4CCOCC4)nc32)CC1` [Compound 95], the IC50 against mTOR and at PI3K p110α/p85 was < 1000 nM in each case.

For `COc1cccc(Cn2cnc3c(-c4ccc5cc[nH]c5c4)nc(N4CCOCC4)nc32)c1` [Compound 18], the IC50 on mTOR is 1000 to 5000 nM; at PI3K p110α/p85, > 5000 nM.

On to `COCCn1cnc2c(-c3cccc(O)c3)nc(N3CCOCC3)nc21` [Compound 11, 3-[9-(2-Methoxy-ethyl)-2-morpholin-4-yl-9H-purin-6-yl]-phenol], for which the IC50 against mTOR and on PI3K p110α/p85 was < 1000 nM in each case.

On to `Nc1ccc(Cn2cnc3c(-c4cccc(O)c4)nc(N4CCOCC4)nc32)cc1` [Compound 20, 3-[9-(4-Amino-benzyl)-2-morpholin-4-yl-9H-purin-6-yl]-phenol], for which the IC50 against mTOR and on PI3K p110α/p85 was < 1000 nM each time.

On to `Oc1cccc(-c2nc(N3CCOCC3)nc3c2ncn3CC2CCCCC2)c1` [Compound 72], for which the figures for the IC50 on mTOR and on PI3K p110α/p85 were < 1000 nM and 1000 to 5000 nM, respectively.

Consider `c1cc(-c2nc(N3CCOCC3)nc3c2ncn3C2CCNCC2)c2cc[nH]c2c1` [Compound 87], for which the IC50 against mTOR was 1000 to 5000 nM; at PI3K p110α/p85 it was < 1000 nM.

Take `CCC(CC)n1cnc2c(-c3ccc(N)nc3)nc(N3CCOCC3)nc21` [Compound 138]: the IC50 against mTOR and at PI3K p110α/p85 was < 1000 nM throughout.

Regarding `CC(=O)Nc1cccc(-c2nc(N3CCOCC3)nc3c2ncn3-c2ccccc2)c1` [Compound 56], the concentration for half-maximal inhibition (IC50) against mTOR and at PI3K p110α/p85 was > 5000 nM throughout.

Regarding `O=C(Cn1cnc2c(-c3cccc(O)c3)nc(N3CCOCC3)nc21)N1CCOCC1` [Compound 82], the half-maximal inhibitory concentration (IC50) against mTOR is 1000 to 5000 nM; at PI3K p110α/p85, < 1000 nM.

As for `CS(=O)(=O)N1CCN(C(=O)Cn2cnc3c(-c4cccc(O)c4)nc(N4CCOCC4)nc32)CC1` [Compound 107], the half-inhibitory concentration (IC50) at mTOR and at PI3K p110α/p85 was < 1000 nM throughout.

As to `Nc1ccc(-c2nc(N3CCOCC3)nc3c2ncn3Cc2cccc([N+](=O)[O-])c2)cn1` [Compound 131], the IC50 on mTOR and at PI3K p110α/p85 was < 1000 nM throughout.

As to `CC(=O)Nc1cccc(Cn2cnc3c(-c4cccc(O)c4)nc(N4CCOCC4)nc32)c1` [Compound 49], the IC50 at mTOR was 1000 to 5000 nM; on PI3K p110α/p85 it was < 1000 nM.

As to `CC(C)Cn1cnc2c(-c3cccc(O)c3)nc(N3CCOCC3)nc21` [Compound 60], the concentration for half-maximal inhibition (IC50) at mTOR and on PI3K p110α/p85 was < 1000 nM throughout.

(Values after patent US20110009403A1, “2-MORPHOLINYLPURINES AS INHIBITORS OF PI3K” (S*BIO Pte Ltd., priority 2007, published 2011).)
